Test system: Subjects With Active Crohn's Disease
Test: Total cholesterol determination, Study 5 (Crohn's disease, monotherapy of Compound 1)
Assay type: in vivo, human
Conditions: for [Total cholesterol] Mean CFB - 20 weeks results / [Total cholesterol] Median CFB - 20 weeks results: placebo week 0 to 10, to 100 mg q.d. week 10 to 20
Excerpt: Double-Blind, Randomized, Placebo-Controlled, Multi-Centre Study to Investigate the Efficacy and Safety of Compound 1 in Subjects With Active Crohn's Disease With Evidence of Mucosal Ulceration.
This is a double-blind, randomized, placebo-controlled, multi-centre Phase 2 study to investigate the efficacy and safety of Compound 1 administered once daily for the treatment of active CD with evidence of mucosal ulceration. The pharmacokinetics (including a PK substudy) and pharmacodynamics of Compound 1 and metabolite in CD will also be characterised.
A total of 180 eligible subjects will be randomized to receive Compound 1 or placebo in addition to their stable background treatment (eg, corticosteroids, aminosalicylates, or CD-related antibiotics). The study will consist of 2 parts, with total treatment duration of 20 weeks. Randomization in Part 1 will be stratified according the subject's previous anti-TNF exposure/response, CRP level at Screening, and oral corticosteroid use at visit Day −1.
After the first 10 weeks of treatment in Part 1, patients will be re-randomized for Part 2 as shown in the diagram below and will be stratified according to the subject's clinical response, previous anti-TNF exposure/response, and oral corticosteroid use at visit Day −1.
The following assays were conducted at Eurofins Global Central Laboratory, Bergschot 71, 4817 PA Breda, The Netherlands, and at Quest Diagnostics, Clinical Trials, Quest House, 125-135 Staines Road, Hounslow, Middlesex, TW3 3JB, United Kingdom. The assays for Study 5 were performed at BARC Europe, 3B, Industrie Park, Zwijnaarde, B-9052 Ghent, Belgium.
This method is based on the determination of Δ^4 cholestenone after enzymatic cleavage of the cholesterol ester by cholesterol esterase, conversion of cholesterol by cholesterol oxidase, and subsequent measurement by the Trinder reaction of the hydrogen peroxide formed (Allain et al., 1974).
Cholesterol esters are cleaved by the action of cholesterol esterase to yield free cholesterol and fatty acids. Cholesterol oxidase then catalyzes the oxidation of cholesterol to cholest-4-en-3-one and hydrogen peroxide. In the presence of peroxidase, the hydrogen peroxide formed effects the oxidative coupling of phenol and 4-aminophenazone to form a red quinone-imine dye. The color intensity of the dye formed is directly proportional to the cholesterol concentration. It is determined by measuring the increase in absorbance.
Human serum and plasma samples cholesterol determination was done on a Roche/Hitachi Cobas c 701/702 system which automatically calculate the analyte concentration of each sample.

[1] = Study 5 10 weeks results, 200 mg q.d., week 10
[2] = Study 5 20 weeks results, 200 mg q.d. to 100 mg q.d. at week 10, week 2
[3] = Study 5 20 weeks results, 200 mg q.d. to 100 mg q.d. at week 10, week 4
[4] = Study 5 20 weeks results, 200 mg q.d. to 100 mg q.d. at week 10, week 6
[5] = Study 5 20 weeks results, 200 mg q.d. to 100 mg q.d. at week 10, week 10
[6] = Study 5 20 weeks results, 200 mg q.d. to 100 mg q.d. at week 10, week 12
[7] = Study 5 20 weeks results, 200 mg q.d. to 100 mg q.d. at week 10, week 16
[8] = Study 5 20 weeks results, 200 mg q.d. to 100 mg q.d. at week 10, week 20
[9] = Study 5 20 weeks results, 200 mg q.d. to placebo at week 10, week 2
[10] = Study 5 20 weeks results, 200 mg q.d. to placebo at week 10, week 4
[11] = Study 5 20 weeks results, 200 mg q.d. to placebo at week 10, week 6
[12] = Study 5 20 weeks results, 200 mg q.d. to placebo at week 10, week 10
[13] = Study 5 20 weeks results, 200 mg q.d. to placebo at week 10, week 12
[14] = Study 5 20 weeks results, 200 mg q.d. to placebo at week 10, week 16
[15] = Study 5 20 weeks results, 200 mg q.d. to placebo at week 10, week 20
[16] = Study 5 20 weeks results, continued 200 mg q.d., week 2
[17] = Study 5 20 weeks results, continued 200 mg q.d., week 4
[18] = Study 5 20 weeks results, continued 200 mg q.d., week 6
[19] = Study 5 20 weeks results, continued 200 mg q.d., week 10
[20] = Study 5 20 weeks results, continued 200 mg q.d., week 12
[21] = Study 5 20 weeks results, continued 200 mg q.d., week 16
[22] = Study 5 20 weeks results, continued 200 mg q.d., week 20
[23] = Study 5 20 weeks results, placebo to 100 mg q.d. at week 10, week 12
[24] = Study 5 20 weeks results, placebo to 100 mg q.d. at week 10, week 16
[25] = Study 5 20 weeks results, placebo to 100 mg q.d. at week 10, week 20

O=C(Nc1nc2cccc(-c3ccc(CN4CCS(=O)(=O)CC4)cc3)n2n1)C1CC1 [Compound 1, cyclopropanecarboxylic acid {5-[4-(1,1-dioxo-thiomorpholin-4-ylmethyl)-phenyl]-[1,2,4]triazolo[1,5-a]pyridin-2yl}-amide]
[Total cholesterol] Median CFB [1]: 0.340 mmol/L | [total cholesterol] Mean CFB [1]: 0.401 mmol/L | [Total cholesterol] Median CFB [2]: 0.19 mmol/L | [total cholesterol] Mean CFB [2]: 0.18 mmol/L | [Total cholesterol] Median CFB [3]: 0.12 mmol/L | [total cholesterol] Mean CFB [3]: 0.27 mmol/L | [Total cholesterol] Median CFB [4]: 0.28 mmol/L | [total cholesterol] Mean CFB [4]: 0.26 mmol/L | [Total cholesterol] Median CFB [5]: 0.38 mmol/L | [total cholesterol] Mean CFB [5]: 0.44 mmol/L | [Total cholesterol] Median CFB [6]: 0.33 mmol/L | [total cholesterol] Mean CFB [6]: 0.23 mmol/L | [Total cholesterol] Median CFB [7]: 0.13 mmol/L | [total cholesterol] Mean CFB [7]: 0.09 mmol/L | [Total cholesterol] Median CFB [8]: 0.10 mmol/L | [total cholesterol] Mean CFB [8]: 0.14 mmol/L | [Total cholesterol] Median CFB [9]: 0.24 mmol/L | [total cholesterol] Mean CFB [9]: 0.16 mmol/L | [Total cholesterol] Median CFB [10]: 0.34 mmol/L | [total cholesterol] Mean CFB [10]: 0.27 mmol/L | [Total cholesterol] Median CFB [11]: 0.29 mmol/L | [total cholesterol] Mean CFB [11]: 0.22 mmol/L | [Total cholesterol] Median CFB [12]: 0.23 mmol/L | [total cholesterol] Mean CFB [12]: 0.22 mmol/L | [Total cholesterol] Median CFB [13]: 0.18 mmol/L | [total cholesterol] Mean CFB [13]: 0.04 mmol/L | [Total cholesterol] Median CFB [14]: 0.05 mmol/L | [total cholesterol] Mean CFB [14]: 0.19 mmol/L | [Total cholesterol] Median CFB [15]: 0.07 mmol/L | [total cholesterol] Mean CFB [15]: 0.18 mmol/L | [Total cholesterol] Median CFB [16]: 0.21 mmol/L | [total cholesterol] Mean CFB [16]: 0.27 mmol/L | [Total cholesterol] Median CFB [17]: 0.16 mmol/L | [total cholesterol] Mean CFB [17]: 0.14 mmol/L | [Total cholesterol] Median CFB [18]: 0.33 mmol/L | [total cholesterol] Mean CFB [18]: 0.19 mmol/L | [Total cholesterol] Median CFB [19]: 0.47 mmol/L | [total cholesterol] Mean CFB [19]: 0.43 mmol/L | [Total cholesterol] Median CFB [20]: 0.29 mmol/L | [total cholesterol] Mean CFB [20]: 0.42 mmol/L | [Total cholesterol] Median CFB [21]: 0.31 mmol/L | [total cholesterol] Mean CFB [21]: 0.43 mmol/L | [Total cholesterol] Median CFB [22]: 0.26 mmol/L | [total cholesterol] Mean CFB [22]: 0.40 mmol/L | [Total cholesterol] Median CFB [23]: 0.02 mmol/L | [total cholesterol] Mean CFB [23]: 0.11 mmol/L | [Total cholesterol] Median CFB [24]: 0.01 mmol/L | [total cholesterol] Mean CFB [24]: 0.08 mmol/L | [Total cholesterol] Median CFB [25]: 0.10 mmol/L | [total cholesterol] Mean CFB [25]: 0.03 mmol/L | [Total cholesterol] Mean CFB - 20 weeks results (week 12): 2.49% | [Total cholesterol] Median CFB - 20 weeks results (week 12): 0.41% | [Total cholesterol] Mean CFB - 20 weeks results (week 16): 2.84% | [Total cholesterol] Median CFB - 20 weeks results (week 16): 0.19% | [Total cholesterol] Mean CFB - 20 weeks results (week 20): 1.90% | [Total cholesterol] Median CFB - 20 weeks results (week 20): 2.81%

— patent US10376520B2, “Methods for the treatment of cardiovascular disorders” (Galapagos NV, priority 2015, dated 2019)
